In US9434743B2, “Indazole derivatives” (TAKEDA PHARMACEUTICAL COMPANY LIMITED, priority 2012, dated 2016):

Experiments:
human MetAP2 enzyme [1] = target: T1, human MetAP2 enzyme (Homo sapiens, UniProt P50579); experiment: MetAP2 enzyme assay, enzyme complexed with cobalt ions; conditions: MetAP2 Co pIC50, MetAP2 enzyme complexed with cobalt ions; Met-AMC substrate at Km
human MetAP2 enzyme [2] = target: T1, human MetAP2 enzyme; experiment: MetAP2 enzyme assay, enzyme complexed with manganese ions; conditions: MetAP2 Mn pIC50, MetAP2 enzyme complexed with manganese ions; Met-AMC substrate at Km

T1 sequence (P50579 whole entry): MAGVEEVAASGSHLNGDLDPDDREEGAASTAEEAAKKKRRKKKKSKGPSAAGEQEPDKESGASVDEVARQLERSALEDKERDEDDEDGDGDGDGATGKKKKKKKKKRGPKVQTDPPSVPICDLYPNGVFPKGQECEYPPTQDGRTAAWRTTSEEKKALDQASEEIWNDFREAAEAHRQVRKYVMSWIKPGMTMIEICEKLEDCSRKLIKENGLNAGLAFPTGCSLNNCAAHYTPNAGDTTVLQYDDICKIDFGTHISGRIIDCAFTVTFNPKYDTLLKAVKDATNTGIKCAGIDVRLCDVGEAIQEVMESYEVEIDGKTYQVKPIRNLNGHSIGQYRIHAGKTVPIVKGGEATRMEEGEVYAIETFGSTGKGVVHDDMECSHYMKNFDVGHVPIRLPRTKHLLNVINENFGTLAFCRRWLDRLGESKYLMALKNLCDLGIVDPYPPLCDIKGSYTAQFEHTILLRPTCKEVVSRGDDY

| IC50 (human MetAP2 enzyme [1]) [nM] | IC50 (human MetAP2 enzyme [2]) [nM] | SMILES |
| --- | --- | --- |
| 3980 | 79.4 | NC(=O)c1cc(F)ccc1-c1cc(C(F)(F)F)cc2[nH]ncc12 [Example 203, 5-fluoro-2-(6-(trifluoromethyl)-1H-indazol-4-yl)benzamide] |
| 794 | 15.8 | Cc1[nH]c(=O)[nH]c(=O)c1-c1cc(C(F)(F)F)cc2[nH]ncc12 [Example 204, 6-methyl-5-(6-(trifluoromethyl)-1H-indazol-4-yl)pyrimidine-2,4(1H,3H)-dione] |
| 1260 | 12.6 | NCC(O)c1ccccc1-c1cc(C(F)(F)F)cc2[nH]ncc12 (stereo not shown) [Example 205, 2-amino-1-(2-(6-(trifluoromethyl)-1H-indazol-4-yl)phenyl)ethanol] |
| 79.4 | 7.94 | C[C@H](CO)Nc1ncc(-c2cc(C(F)(F)F)cc3[nH]ncc23)cn1 [Example 206, (R)-2-(5-(6-(trifluoromethyl)-1H-indazol-4-yl)pyrimidin-2-ylamino)propan-1-ol] |
| 79.4 | 7.94 | C[C@@H](O)CNc1ncc(-c2cc(C(F)(F)F)cc3[nH]ncc23)cn1 [Example 207, (R)-1-(5-(6-(trifluoromethyl)-1H-indazol-4-yl)pyrimidin-2-ylamino)propan-2-ol] |
| 79.4 | 6.31 | C[C@H](O)CNc1ncc(-c2cc(C(F)(F)F)cc3[nH]ncc23)cn1 [Example 208, (S)-1-(5-(6-(trifluoromethyl)-1H-indazol-4-yl)pyrimidin-2-ylamino)propan-2-ol] |
| 79.4 | 6.31 | OCCNc1ncc(-c2cc(C(F)(F)F)cc3[nH]ncc23)cn1 [Example 209, 2-(5-(6-(trifluoromethyl)-1H-indazol-4-yl)pyrimidin-2-ylamino)ethanol] |
| 631 | 12.6 | Oc1ncccc1-c1cc(C(F)(F)F)cc2[nH]ncc12 [Example 210, 3-(6-(trifluoromethyl)-1H-indazol-4-yl)pyridin-2-ol] |
| 25.1 | 6.31 | Cc1ccc(-c2cc(C(F)(F)F)cc3[nH]ncc23)c(N)n1 [Example 211, 6-methyl-3-(6-(trifluoromethyl)-1H-indazol-4-yl)pyridin-2-amine] |
| 200 | 10 | N#Cc1cnc(N)c(-c2cc(C(F)(F)F)cc3[nH]ncc23)c1 [Example 212, 6-amino-5-(6-(trifluoromethyl)-1H-indazol-4-yl)nicotinonitrile] |
| 631 | 79.4 | COc1cccnc1-c1cc(C(F)(F)F)cc2[nH]ncc12 [Example 213, 4-(3-methoxypyridin-2-yl)-6-(trifluoromethyl)-1H-indazole] |
| 501 | 15.8 | Oc1cccnc1-c1cc(C(F)(F)F)cc2[nH]ncc12 [Example 214, 2-(6-(trifluoromethyl)-1H-indazol-4-yl)pyridin-3-ol] |
| 50.1 | 7.94 | Cc1ccc(-c2cc(C(F)(F)F)cc3[nH]ncc23)c(C)n1 [Example 215, 4-(2,6-dimethylpyridin-3-yl)-6-(trifluoromethyl)-1H-indazole] |
| 398 | 10 | Nc1cc(Cl)cnc1-c1cc(C(F)(F)F)cc2[nH]ncc12 [Example 216, 5-chloro-2-(6-(trifluoromethyl)-1H-indazol-4-yl)pyridin-3-amine] |
| 158 | 10 | FC(F)(F)c1cc(-c2cnc(-n3ccnc3)nc2)c2cn[nH]c2c1 [Example 217, 4-(2-(1H-imidazol-1-yl)pyrimidin-5-yl)-6-(trifluoromethyl)-1H-indazole] |
| 2000 | 251 | CC(=O)Nc1cccnc1-c1cc(C(F)(F)F)cc2[nH]ncc12 [Example 218, N-(2-(6-(trifluoromethyl)-1H-indazol-4-yl)pyridin-3-yl)acetamide] |
| 50.1 | 12.6 | Cc1nn(CCN(C)C)c(C)c1-c1cc(C(F)(F)F)cc2[nH]ncc12 [Example 219, 2-(3,5-dimethyl-4-(6-(trifluoromethyl)-1H-indazol-4-yl)-1H-pyrazol-1-yl)-N,N-dimethylethanamine] |
| 79.4 | 6.31 | Cn1cc(-c2cc(C(F)(F)F)cc3[nH]ncc23)c(CO)n1 [Example 220, (1-methyl-4-(6-(trifluoromethyl)-1H-indazol-4-yl)-1H-pyrazol-3-yl)methanol] |
| 63.1 | 10 | CN1CCN(C(=O)c2cnc(N)c(-c3cc(C(F)(F)F)cc4[nH]ncc34)c2)CC1 [Example 221, (6-amino-5-(6-(trifluoromethyl)-1H-indazol-4-yl)pyridin-3-yl)(4-methylpiperazin-1-yl)methanone] |
| 251 | 15.8 | Cc1nn2c(=O)[nH]ncc2c1-c1cc(C(F)(F)F)cc2[nH]ncc12 [Example 222, 2-methyl-3-(6-(trifluoromethyl)-1H-indazol-4-yl)pyrazolo[1,5-d][1,2,4]triazin-7(6H)-one] |
| 126 | 7.94 | O=S(=O)(c1ccc(-c2cc(C(F)(F)F)cc3[nH]ncc23)cc1)n1cccn1 [Example 223, 4-(4-(1H-pyrazol-1-ylsulfonyl)phenyl)-6-(trifluoromethyl)-1H-indazole] |
| 39.8 | 2.51 | O=S(=O)(NCCO)c1ccc(-c2cc(C(F)(F)F)cc3[nH]ncc23)cc1 [Example 224, N-(2-hydroxyethyl)-4-(6-(trifluoromethyl)-1H-indazol-4-yl)benzenesulfonamide] |
| 100 | 7.94 | O=S(=O)(c1ccc(-c2cc(C(F)(F)F)cc3[nH]ncc23)cc1)N1CCOCC1 [Example 225, 4-(4-(6-(trifluoromethyl)-1H-indazol-4-yl)phenylsulfonyl)morpholine] |
| 126 | 7.94 | CN1CCN(C(=O)c2cc(-c3cc(C(F)(F)F)cc4[nH]ncc34)c[nH]c2=O)CC1 [Example 227, 3-(4-methylpiperazine-1-carbonyl)-5-(6-(trifluoromethyl)-1H-indazol-4-yl)pyridin-2(1H)-one] |
| 158 | 5.01 | O=C(NCCO)c1cc(-c2cc(C(F)(F)F)cc3[nH]ncc23)c[nH]c1=O [Example 228, N-(2-hydroxyethyl)-2-oxo-5-(6-(trifluoromethyl)-1H-indazol-4-yl)-1,2-dihydropyridine-3-carboxamide] |
| 63.1 | 6.31 | COc1ncc(-c2cc(C(F)(F)F)cc3[nH]ncc23)cc1C(=O)NCCO [Example 229, N-(2-hydroxyethyl)-2-methoxy-5-(6-(trifluoromethyl)-1H-indazol-4-yl)nicotinamide] |
| 158 | 7.94 | Nc1ncc(-c2cc(C(F)(F)F)cc3[nH]ncc23)cc1C(=O)NCCO [Example 230, 2-amino-N-(2-hydroxyethyl)-5-(6-(trifluoromethyl)-1H-indazol-4-yl)nicotinamide] |
| 158 | 6.31 | NC(=O)c1cc(-c2cc(C(F)(F)F)cc3[nH]ncc23)c[nH]c1=O [Example 231, 2-oxo-5-(6-(trifluoromethyl)-1H-indazol-4-yl)-1,2-dihydropyridine-3-carboxamide] |
| 63.1 | 6.31 | COc1ncc(-c2cc(C(F)(F)F)cc3[nH]ncc23)cc1C(N)=O [Example 232, 2-methoxy-5-(6-(trifluoromethyl)-1H-indazol-4-yl)nicotinamide] |
